From patent US7820692B2, “Tetrahydro isoquinoline derivatives, preparation methods and medicinal uses thereof” (China Pharmaceutical University, priority 2006, dated 2010)

What was measured:
μ-opioid receptor = μ-opioid receptor (Homo sapiens, UniProt P35372); test: Radioligand receptor binding assay, competition with [3H]diprenorphine, μ-receptor
Description: (§1) The experiment test tubes are divided into total binding tubes and non-specific binding tubes, and several groups of sample tubes added with competitive ligand in different concentrations are provided. The total binding tube is added with expressed membrane receptor protein equivalent to 20 μg and [^3H] diprenorphine (0.5 nM) (1.44 Pbq/mol broad spectrum opioid antagonist, Amersham), the corresponding non-specific binding tubes are further added with 1 μM Naloxone (broad spectrum opioid antagonist, Sigma), the sample tubes are added with different concentrations compounds which are to be screened, the final volume is regulated to 100 μl with 50 mM Tris(Amresco)-HCl (pH 7.4). Incubation is performed at 30° C. for 30 min, and the tubes are placed into ice water to stop reaction. Negative pressure filter is performed in Millipore sample collector via GF/(Whatman) glass fiber filter paper. Ice cold 50 mM Tris-HCl (pH 7.4) is used to wash the filter paper for three times, each for 4 ml; Dry the filter paper and place it in 0.5 ml Eppendorff tube, and add 0.5 ml of lipophilic scintillator liquid (Reagent No. 1 Factory Of Shanghai Chemical Reagent Co. Ltd). Beckman LS 6500 multifunctional liquid scintillation counter is adopted for measuring radiation intensity, calculating inhibition rate is calculated, each concentration has three duplicated tubes, and each tube is independently tested for 3-4 times.
(§2) IC50 value is calculated by software Prism 4.0.
(§3) Ki=IC50/(1+[L]/Kd), ([L] is the concentration of added marked ligand, and Kd is equilibrium dissociation constant of radioligand).

Kuming mice [1] = test: Mice writhing assay (acetic acid) analgesic test; format: in vivo; settings: subcutaneous injection, 0.6% acetic acid after 30 min, writhing within 15 min
Description: (§4) Analgesic efficacy of the subject compound is determined by using model derived from mice hot plate method and mice writhing method (Methodology of Pharmacological Experiment, edition II, Xu Shuyun, People Medical Publishing Company, 1991).
(§5) • (1) Selection of normal mice: the test room temperature is controlled at about 22° C., temperature of the hot plate of an pain threshold dector is regulated to 55° C., the duration from the moment the mice is put on the hot plate to the moment the mice start to lick the hind paw is recorded as pain threshold value, the test is repeated twice at interval of 20 min, and the mice with average pain threshold value no more than 30 sec is qualified mice. • (2) Experimental mice: the qualified mice are randomly divided into groups each having 10 mice, and subjected to subcutaneous injection. • Each group is tested for mice pain response time once every 5, 15, 30, 50, and 60 minute after administration, and the medicine is believed to be effective which response time beyond 1 min. • Mice Writhing Assay • I-6 is administered via subcutaneous injection, then 0.6% acetic acid solution (10 ml/kg) is administered after 30 min, and the number of the mice writhing within 15 min is recorded. 3.

κ-opioid receptor = κ-opioid receptor (Homo sapiens, UniProt P41145); test: Radioligand receptor binding assay, competition with [3H]diprenorphine, κ-receptor
Description: as §1, §2, §3

Kuming mice [2] = test: Analgesic tolerance test (hot plate, 9 days administration); format: in vivo; settings: I-6 25 μg/kg subcutaneous injection Day 1-9, hot plate
Description: Kuming mice (18-20 g, male) are selected for test, and divided into physiological saline group, morphine group, and I-6 group.
physiological saline group: subcutaneous administration, 0.2 mL for each mice.
Morphine group: Day 1-3, subcutaneous injection, 7 mg/kg • Day 4-7, subcutaneous injection, 10 mg/kg • Day 8-9, subcutaneous injection, 15 mg/kg I-6 group: Day 1-9, subcutaneous injection, 25 μg/kg
Hot plate method in mice is adopted as model, administration lasts for 9 days, analgesic effects before and after administration are determined every day, and if analgesic effect is attenuated after continuous administration of 3 days, the drug concentration will be increased, and if analgesic effect don't change, the drug concentration will not be changed.

Kuming mice [3] = test: Mice hot plate method analgesic test; format: in vivo
Description: as §4
Experiment Animal: Kuming Mice (Female, 18-22 g)
as §5

Kuming mice [4] = test: Influence of compound I-6 on physical dependence caused by morphine; format: in vivo; settings: I-6 300 μg/kg peritoneally 10 min before morphine every day
Description: Kuming mice (18-20 g, male) are selected and divided into physiological saline group, morphine group, and I-6+morphine group.
physiological saline group: subcutaneous injection, 0.2 mL for each mouse, continuous administration for 10 days.
(§6) morphine group: subcutaneous injection, administration according to an escalating dose schedule, 20, 40, 60, 80, 100 mg/kg, continuous administration for 10 days, two injections per day at 8 hours interval, administration with escalating concentration, and 100 mg/kg is maintained from the fifth injection until Day 10.
I-6+morphine group: subcutaneous injection of morphine according to 20, 40, 60, 80, 100 mg/kg, continuous administration for 10 days, two injections per day at 8 hours interval, administration with escalating concentration, and 100 mg/kg is maintained from the fifth injection until Day 10; 300 μg/kg of compound I-6 is administered peritonally 10 min before administration of morphine every day.
2 hours after the end administration on Day 10, each group is peritoneally administered with Naloxone 3 mg/kg, and jump times and weight reduction of mice within 20 min in each group are observed.

Kuming mice [5] = test: Physical dependence test after chronic administration (Naloxone-induced jumping and weight reduction); format: in vivo; settings: escalating 50-300 μg/kg s.c. twice daily for 10 days, then Naloxone 3 mg/kg peritoneally
Description: Kuming mice (18-20 g, male) are selected, and divided into physiological saline group, morphine group, and I-6 group.
physiological saline group: subcutaneous injection, 0.2 mL for each mice, continuous administration for 10 days.
as §6
as §6, with “I-6” for “morphine”, “50, 100, 150, 200, 300 μg/kg,” for “20, 40, 60, 80, 100 mg/kg,”, “300 μg/kg” for “100 mg/kg”
2 hours after the end administration on the Day 10, each group is peritoneally administered with Naloxone 3 mg/kg, and jump times and weight reduction of mice within 20 min in each group are observed.

[6] = Acute toxicity test of compound I-6; format: in vivo, mice; settings: both sexes, Kunming, mouse, in vivo, intraperitoneal; peritoneal administration, mice, observation two weeks
Description: (§7) Acute toxicity of compound I-6 is determined according to Methodology of Pharmacological Experiment, edition II, Xu Shuyun (People's Medical Publishing House, 1991), and An Introduction of the Assessment for Novel Drugs, edition II, Qin Boyi (People's Medical Publishing House, 1999).
(§8) Kunming mice (body weight 18-22 g, female 6 weeks old, male 4-5 weeks) are provided, randomly divided into groups each having 20 mice (half female, half male). The mice are subjected to adaptive feeding for 1-2 days before administration. Compound I-6 is administered peritoneally for 4 dosage groups, 60 mg/kg, 50 mg/kg, 40 mg/kg, and 30 mg/kg. The mice are normally fed after administration, their conditions, such as drinking, feeding, excreting, activity, and hair color, are observed everyday, their body weights are weighed every other day, and the observation lasts for two weeks.

Kunming mice = test: Acute toxicity test of compound I-6; format: in vivo; settings: peritoneal administration at 30 mg/kg
Description: as §7, §8

O=C1CC(C(=O)N2CCc3ccccc3C2CN2CCCC2)c2cc(Cl)ccc21 (stereo not shown) [I-6, 1-(pyrrolidine-1-methyl)-2-(6-chloro-2,3-dihydro-inden-3-keto-1-carbonyl)-1,2,3,4-tetrahydroisoquinoline]
Ki (μ-opioid receptor; Ki=IC50/(1+[L]/Kd)): 668 nM | IC50 (μ-opioid receptor; competition binding, μ-opioid receptor): 2000 nM | receptor selectivity μKi/κKi (μ-opioid receptor; ratio of μ Ki to κ Ki): 22341 | Analgesic experiment result, Mice writhing assay (Kuming mice [1]): 3.313(1.775-6.183) ug/kg | Ki (κ-opioid receptor; Ki=IC50/(1+[L]/Kd)): 0.0299 nM | dpm (κ-opioid receptor; competition binding with κ-receptor, compound at 1 × 10^−5 M, [3H]diprenorphine 0.5 nM): 201.00 dpm | IC50 (κ-opioid receptor; competition binding, κ-opioid receptor): 0.105 nM | inhibition at 10 µM (κ-opioid receptor; compound at 1 × 10^−5 M, read-out: inhibition rate %): 100% | analgesic tolerance (Kuming mice [2]): does not produce significant tolerance phenomena | analgesic efficacy compared with morphine (Kuming mice [3]; mice hot plate method and mice writhing method): powerful analgesic efficacy | Analgesic experiment result, Mice hot plate method (Kuming mice [3]; subcutaneous injection, hot plate 55° C., value with range in brackets): 25.000(18.675-33.467) ug/kg | effect on physical dependence caused by morphine (Kuming mice [4]; 10 days): can resist physical dependence caused by morphine | jump times of Naloxone-induced mice (Kuming mice [4]; Naloxone 3 mg/kg on Day 10): significantly reduce jump times | physical dependence after continuous administration (Kuming mice [5]): causes no physical dependence like morphine | LD50 at 2 weeks [6]: 40.1 mg/kg | influence on drinking, feeding, excreting, activities and hair color (Kunming mice): no influence
